Assay results from ChEMBL document CHEMBL4765313, “Synthesis, in vitro evaluation and molecular docking of a new class of indolylpropyl benzamidopiperazines as dual AChE and SERT ligands for Alzheimer's disease” (Eur J Med Chem, 2020).
pIC50: −log10 of the molar value. Calls of active or inactive are those of the source. The calls are words filed in the database; no cut-off is given here.

Columns and labels:
[1] = Solubility of compound at pH 7.4 at 1 to 100 uM; format: physicochemical; details: buffer, pH 7.4, 100 µM; dose 1-100 µM
[2] = system: SH-SY5Y; test: Cytotoxicity against human SH-SY5Y cells assessed as reduction in cell viability incubated for 72 hrs by MTT assay; format: ADME, cell-based
[3] = target: Sodium-dependent serotonin transporter (Homo sapiens, UniProt P31645); test: Displacement of [3H]paroxetine from human SERT expressed in human HEK293 cells incubated for 30 mins by liquid scintillation counting analysis; format: cell-based
[4] = system: HEK293; test: Cytotoxicity against human HEK293 cells assessed as reduction in cell viability incubated for 72 hrs by MTT assay; format: ADME, cell-based; details: HEK293, 72 h
[5] = target: Acetylcholinesterase (Homo sapiens, UniProt P22303); test: Inhibition of human plasma AChE using acetylthiocholine iodide as substrate preincubated for 15 mins followed by substrate addition and measured after 10 mins by Ellman's method; format: cell-free
[6] = Reduction of beta-Amyloid40 level in mouse N2a cells transfected with human APP695 at 10 uM incubated for 16 hrs by ELISA relative to control; format: functional
[7] = system: N2a; test: Decrease in APP-C99 in mouse N2a cells transfected with human APP695 by Western blot analysis; format: functional, cell-based
[8] = system: N2a; test: Effect on APP in mouse N2a cells transfected with human APP695 by Western blot analysis; format: functional, cell-based

Chain of Sodium-dependent serotonin transporter (P31645 whole entry): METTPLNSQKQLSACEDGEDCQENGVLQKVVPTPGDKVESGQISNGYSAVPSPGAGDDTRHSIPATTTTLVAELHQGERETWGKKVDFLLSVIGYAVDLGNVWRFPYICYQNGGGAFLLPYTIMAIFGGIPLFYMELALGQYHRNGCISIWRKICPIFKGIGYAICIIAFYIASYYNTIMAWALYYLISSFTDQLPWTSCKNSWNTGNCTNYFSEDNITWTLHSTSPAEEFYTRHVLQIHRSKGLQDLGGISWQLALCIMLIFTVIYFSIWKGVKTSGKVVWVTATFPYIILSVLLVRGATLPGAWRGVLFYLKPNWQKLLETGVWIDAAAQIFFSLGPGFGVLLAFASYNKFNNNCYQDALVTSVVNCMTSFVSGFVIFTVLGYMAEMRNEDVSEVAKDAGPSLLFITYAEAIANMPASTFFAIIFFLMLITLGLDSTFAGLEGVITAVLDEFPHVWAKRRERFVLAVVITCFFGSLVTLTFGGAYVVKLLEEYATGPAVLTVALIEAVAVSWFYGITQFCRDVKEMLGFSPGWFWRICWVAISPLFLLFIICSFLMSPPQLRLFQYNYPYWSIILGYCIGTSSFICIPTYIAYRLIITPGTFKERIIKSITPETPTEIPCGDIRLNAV
Chain of Acetylcholinesterase (P22303 whole entry): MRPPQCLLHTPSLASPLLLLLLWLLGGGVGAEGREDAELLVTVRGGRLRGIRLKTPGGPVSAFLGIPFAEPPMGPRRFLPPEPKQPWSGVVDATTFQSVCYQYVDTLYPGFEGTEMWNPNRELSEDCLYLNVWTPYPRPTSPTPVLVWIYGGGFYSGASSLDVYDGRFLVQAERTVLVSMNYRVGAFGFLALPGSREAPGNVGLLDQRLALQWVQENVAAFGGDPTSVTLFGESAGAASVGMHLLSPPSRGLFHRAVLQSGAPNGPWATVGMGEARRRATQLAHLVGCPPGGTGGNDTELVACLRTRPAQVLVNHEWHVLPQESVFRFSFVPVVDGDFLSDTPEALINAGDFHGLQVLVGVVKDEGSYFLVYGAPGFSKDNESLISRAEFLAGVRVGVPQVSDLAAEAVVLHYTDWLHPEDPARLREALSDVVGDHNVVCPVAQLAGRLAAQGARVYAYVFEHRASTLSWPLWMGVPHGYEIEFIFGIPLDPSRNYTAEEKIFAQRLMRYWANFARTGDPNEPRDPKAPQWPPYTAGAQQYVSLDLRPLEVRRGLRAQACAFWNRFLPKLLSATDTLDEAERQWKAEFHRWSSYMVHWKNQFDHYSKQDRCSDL

Compound | solubility [1] | pIC50 [2] | pIC50 [3] | pIC50 [4] | pIC50 [5] | inhibition at 10 µM [6] | inhibition [7] | Activity [8]
Cc1ccc(C(=O)N2CCN(CC(=O)N3CCN(CCCc4c[nH]c5ccccc45)CC3)CC2)cc1 | Soluble | < 3.70 | < 3.00 | 3.80 | 4.53 |  |  | 
CN(C)CCCC1(c2ccc(F)cc2)OCc2cc(C#N)ccc21 (stereo not drawn) [CITALOPRAM] |  | < 3.70 |  | < 3.70 | 4.13 |  |  | 
COc1cccc(C(=O)N2CCN(CC(=O)N3CCN(CCCc4c[nH]c5ccc(OC)cc45)CC3)CC2)c1 | Soluble | < 3.70 | < 3.00 | < 3.70 | < 4.30 |  |  | 
COc1ccc(C(=O)N2CCN(CC(=O)N3CCN(CCCc4c[nH]c5ccc(OC)cc45)CC3)CC2)cc1 | Soluble | 3.72 | < 3.00 | 3.72 | < 4.30 |  |  | 
O=C(CN1CCN(C(=O)c2cccc(Cl)c2)CC1)N1CCN(CCCc2c[nH]c3ccccc23)CC1 | Soluble | 3.92 | < 3.00 | 4.00 | 4.49 |  |  | 
O=C(CN1CCN(C(=O)c2cccc(F)c2)CC1)N1CCN(CCCc2c[nH]c3ccccc23)CC1 | Soluble | 3.78 | < 3.00 | 3.74 | < 4.30 |  |  | 
O=C(CN1CCN(C(=O)c2ccc(Cl)cc2)CC1)N1CCN(CCCc2c[nH]c3ccccc23)CC1 | Soluble | 3.86 | < 3.00 | 4.01 | 4.45 |  |  | 
O=C(CN1CCN(C(=O)c2ccccc2Br)CC1)N1CCN(CCCc2c[nH]c3ccc(F)cc23)CC1 | Soluble | 4.10 | 5.72 | 4.11 | 4.48 |  |  | 
COc1ccc2[nH]cc(CCCN3CCN(C(=O)CN4CCN(C(=O)c5ccc(Cl)cc5)CC4)CC3)c2c1 | Soluble | 3.80 | < 3.00 | 3.93 | < 4.30 |  |  | 
COc1ccc(C(=O)N2CCN(CC(=O)N3CCN(CCCc4c[nH]c5ccccc45)CC3)CC2)cc1 | Soluble | 3.83 | < 3.00 | 3.81 | 4.60 |  |  | 
COc1ccc2[nH]cc(CCCN3CCN(C(=O)CN4CCN(C(=O)c5ccc(C)cc5)CC4)CC3)c2c1 | Soluble | < 3.70 | < 3.00 | 3.83 | < 4.30 |  |  | 
COc1ccc2[nH]cc(CCCN3CCN(C(=O)CN4CCN(C(=O)c5ccccc5Br)CC4)CC3)c2c1 | Soluble | 3.95 | < 3.00 | 3.79 | < 4.30 |  |  | 
Cc1ccc(C(=O)N2CCN(CC(=O)N3CCN(CCCc4c[nH]c5ccc(F)cc45)CC3)CC2)cc1 | Soluble | 3.92 | 3.91 | 3.85 | 5.44 |  |  | 
O=C(CN1CCN(C(=O)c2cccc(Cl)c2)CC1)N1CCN(CCCc2c[nH]c3ccc(F)cc23)CC1 | Soluble | 4.22 | 3.83 | 4.18 | 4.74 |  |  | 
O=C(CN1CCN(C(=O)c2ccc(Br)cc2)CC1)N1CCN(CCCc2c[nH]c3ccccc23)CC1 | Soluble | 4.23 | < 3.00 | 4.14 | 4.45 |  |  | 
O=C(CN1CCN(C(=O)c2cccc(Br)c2)CC1)N1CCN(CCCc2c[nH]c3ccccc23)CC1 | Soluble | 4.09 | < 3.00 | 4.09 | 4.64 | 50% | Active | inactive
COc1cccc(C(=O)N2CCN(CC(=O)N3CCN(CCCc4c[nH]c5ccc(F)cc45)CC3)CC2)c1 | Soluble | 4.10 | 4.08 | 4.06 | 4.71 |  |  | 
O=C(CN1CCN(C(=O)c2ccc(F)cc2)CC1)N1CCN(CCCc2c[nH]c3ccc(F)cc23)CC1 | Soluble | 3.92 | 3.67 | 3.99 | 5.47 |  |  | 

Compound | solubility [1] | pIC50 [2] | pIC50 [3] | pIC50 [4] | pIC50 [5] | inhibition at 10 µM [6] | inhibition [7] | Activity [8]
O=C(CN1CCN(C(=O)c2cccc(Br)c2)CC1)N1CCN(CCCc2c[nH]c3ccc(F)cc23)CC1 | Soluble | 4.15 | 3.74 | 4.39 | 4.43 |  |  | 
COc1ccc2[nH]cc(CCCN3CCN(C(=O)CN4CCN(C(=O)c5cccc(F)c5)CC4)CC3)c2c1 | Soluble | < 3.70 | < 3.00 | < 3.70 | 4.43 |  |  | 
COc1ccc2[nH]cc(CCCN3CCN(C(=O)CN4CCN(C(=O)c5cccc(Cl)c5)CC4)CC3)c2c1 | Soluble | < 3.70 | < 3.00 | 3.85 | < 4.30 |  |  | 
COc1ccc(C(=O)N2CCN(CC(=O)N3CCN(CCCc4c[nH]c5ccc(F)cc45)CC3)CC2)cc1 | Soluble | 3.79 | 3.88 | 3.85 | 4.84 |  |  | 
COc1ccc2[nH]cc(CCCN3CCN(C(=O)CN4CCN(C(=O)c5ccccc5)CC4)CC3)c2c1 | Soluble | < 3.70 | < 3.00 | < 3.70 | < 4.30 | 37% |  | 
COc1ccc2[nH]cc(CCCN3CCN(C(=O)CN4CCN(C(=O)c5ccc(Br)cc5)CC4)CC3)c2c1 | Soluble | 3.82 | < 3.00 | 4.09 | < 4.30 |  |  | 
COc1ccc2[nH]cc(CCCN3CCN(C(=O)CN4CCN(C(=O)c5cccc(Br)c5)CC4)CC3)c2c1 | Soluble | 3.98 | < 3.00 | 4.24 | < 4.30 |  |  | 
O=C(CN1CCN(C(=O)c2ccc(Cl)cc2)CC1)N1CCN(CCCc2c[nH]c3ccc(F)cc23)CC1 | Soluble | 3.90 | 3.26 | 4.35 | 4.65 |  |  | 
O=C(CN1CCN(C(=O)c2ccc(F)cc2)CC1)N1CCN(CCCc2c[nH]c3ccccc23)CC1 | Soluble | 3.72 | < 3.00 | 3.85 | 4.40 |  |  | 
O=C(CN1CCN(C(=O)c2ccccc2)CC1)N1CCN(CCCc2c[nH]c3ccc(F)cc23)CC1 | Soluble | 3.84 | 3.49 | 3.83 | < 4.30 |  |  | 
O=C(CN1CCN(C(=O)c2cccc(F)c2)CC1)N1CCN(CCCc2c[nH]c3ccc(F)cc23)CC1 | Soluble | 3.77 | 4.16 | 4.08 | < 4.30 |  |  | 
O=C(CN1CCN(C(=O)c2ccccc2)CC1)N1CCN(CCCc2c[nH]c3ccccc23)CC1 | Soluble | < 3.70 | < 3.00 | < 3.70 | < 4.30 |  |  | 
COc1cc2c(cc1OC)C(=O)C(CC1CCN(Cc3ccccc3)CC1)C2 (stereo not drawn) [DONEPEZIL] |  |  | < 3.00 |  |  |  |  | 
COc1cccc(C(=O)N2CCN(CC(=O)N3CCN(CCCc4c[nH]c5ccccc45)CC3)CC2)c1 | Soluble | < 3.70 | < 3.00 | 3.84 | < 4.30 |  |  | 
O=C(CN1CCN(C(=O)c2ccc(Br)cc2)CC1)N1CCN(CCCc2c[nH]c3ccc(F)cc23)CC1 | Soluble | 4.32 | 5.04 | 4.22 | 4.40 |  |  | 
O=C(CN1CCN(C(=O)c2ccccc2F)CC1)N1CCN(CCCc2c[nH]c3ccccc23)CC1 | Soluble | 4.08 | < 3.00 | 3.87 | 4.69 |  |  | 
COc1ccc2[nH]cc(CCCN3CCN(C(=O)CN4CCN(C(=O)c5ccc(F)cc5)CC4)CC3)c2c1 | Soluble | < 3.70 | < 3.00 | < 3.70 | < 4.30 |  |  | 
